Data as given in patent US4882447A, “Novel organic platinum complex and process for the preparation thereof” (priority 1987, dated 1989).

Assays:
Sarcoma cells = assay: Chemotherapeutic effect on subcutaneously inoculated sarcoma cells in ICR mice (tumor weight, i.p. once a day for 5 days); type: in vivo, female ICR mice; conditions: for Inhibition rate / Inhibition rate (%) (entry: toxic): once a day for 5 days; for Inhibition rate: tumor weight 5 days after the administration; for Inhibition rate (%) (entry: toxic): 100 mg/kg/day i.p., group of five female ICR mice; for ED30: denominator of MTD/ED30; for ED30 / MTD: doses of the table in mg/kg/day; for ED30 / MTD / Therapeutic index (MTD/ED30): i.p. once a day for 5 days; for MTD: numerator of MTD/ED30; for Therapeutic index (MTD/ED30): ratio MTD/ED30
Method: Chemotherapeutic effect of the organic platinum complex (I) of this invention was investigated as follows.
Sarcoma cells (1.5×10^6 cells) were inoculated subcutaneously at inguinal region of a group of five female mice (ICR mice, five week age). Twenty four hours after the inoculation, a solution of test compound was intraperitoneally administered to the mice once a day for 5 days. The weight of tumor in the mice was measured 5 days after the administration.

[1] = Renal function indices (creatinine and urea in blood) in mice; type: in vivo; conditions: dose required to induce 100% increase in the life span
Description: The organic platinum complex of the invention also has advantageous properties such as less toxicity to kidney, remarkedly higher water solubility and is easily transferred into organs in vivo in comparison with known organic platinum complexes.

Structure (SMILES) | Inhibition rate (Sarcoma cells; 6.25 mg/kg/day i.p.) [%] | Inhibition rate (Sarcoma cells; 12.5 mg/kg/day i.p.) [%] | Inhibition rate (Sarcoma cells; 25 mg/kg/day i.p.) [%] | Inhibition rate (Sarcoma cells; 50 mg/kg/day i.p.) [%] | Inhibition rate (%) (entry: toxic) (Sarcoma cells) | ED30 (Sarcoma cells) | MTD (Sarcoma cells) | Therapeutic index (MTD/ED30) (Sarcoma cells) | influence on indices of renal functions such as the concentration of creatinine and ueas in blood [1] | Inhibition rate (Sarcoma cells; 3.12 mg/kg/day i.p.) [%]
COCCOCC(=O)NC1C(=O)[O][Pt-2]2([NH2+]C3CCCCC3[NH2+]2)[O]C1=O (stereo not drawn) [Compound 2, [2-[[(methoxyethoxy)acetyl]amino]malonato] (trans-l-1,2-diaminocyclohexane)platinum (II)] | 17.8 | 57.6 | 65.4 | 80.2 | Toxic (4/5) | 6.7 | 50 | 7.5 | – | –
CC(=O)NC1C(=O)[O][Pt]2([NH]C3CCCCC3[NH]2)[O]C1=O (stereo not drawn) [Compound 1, [2-(acetylamino)malonato](trans-l-1,2-diaminocyclohexane)platinum (II)] | 36.0 | 52.3 | 64.8 | 89.4 | Toxic (5/5) | 3.6 | 50 | – | no influences | 28.4
CC(=O)NC1(C)C(=O)[O][Pt-2]2([NH2+]C3CCCCC3[NH2+]2)[O]C1=O (stereo not drawn) [Compound 3, [2-(acetylamino)-2-methylmalonato] (trans-l-1,2-diaminocyclohexane) platinum (II)] | 26.4 | 49.7 | 63.5 | 80.7 | Toxic (5/5) | 7.0 | 50 | 7.1 | – | –
